According to PubChem BioAssay AID1963421 (Molecular Pharmacology Branch, DTP, NCI, 2024):
Values joined by “and” are separate entries in the source; they are usually repeats but may differ in a detail not shown here. Equal values may be shown once. Each block holds one molecule with its values, some of them ahead of it.

Test system: 519858-162-T-J1-PDC complex spheroid growth, % test/control
Test: Anticancer human tumor 519858-162-T-J1-PDC patient-derived colon adenocarcinoma cell line growth inhibition [Asc]
Details: for viability, T/C: stronger effect = lower value
How it was run: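 Concentration series start at each agent's clinical Cmax, or at 10 microM when none is established, and drop in half-log steps; agents are applied alone or together to complex spheroids built with HUVEC and hMSC.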
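Note: seven day drug exposure begun three days after spheroid seeding.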
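Throughout, for viability, T/C: 100% = DMSO vehicle wells and lower values mean less viable spheroid.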

IC50 (curve of first compound, second compound 0.0316 µM): > 3 µM
IC50 (curve of first compound, second compound 0.1 µM): > 3 µM
IC50 (curve of first compound, second compound 0.316 µM): > 3 µM
IC50 (curve of first compound, second compound 1 µM): > 3 µM
IC50 (curve of first compound, second compound 3.16 µM): > 3 µM
IC50 (curve of first compound, second compound 10 µM): 0.748 µM
SMILES: CCN1C(C(=O)NC23CCC(C(=O)O)(CC2)CC3)C(c2cccc(Cl)c2F)C2(C(=O)Nc3cc(Cl)ccc32)C12CCCCC2 (centres undefined) + Cc1c(S(C)(=O)=O)c(-c2cc(F)cc(N3CCN(c4ccc(NS(=O)(=O)c5ccc(NC(CCN6CCC(C(=O)OCCCP(=O)(O)O)CC6)CSc6ccccc6)c(S(=O)(=O)C(F)(F)F)c5)cc4)CC3)c2)c(-c2ccc(Cl)cc2)n1C(C)C
viability, T/C (second compound 0.0316 µM, first compound 0.00949 µM): 74.8%
viability, T/C (second compound 0.0316 µM, first compound 0.03 µM): 50%
viability, T/C (second compound 0.0316 µM, first compound 0.0949 µM): 76.3%
viability, T/C (second compound 0.0316 µM, first compound 0.3 µM): 79.4%
viability, T/C (second compound 0.0316 µM, first compound 0.949 µM): 61.8%
viability, T/C (second compound 0.0316 µM, first compound 3 µM): 79.5%
viability, T/C (second compound 0.1 µM, first compound 0.00949 µM): 83.2%
viability, T/C (second compound 0.1 µM, first compound 0.03 µM): 104%
viability, T/C (second compound 0.1 µM, first compound 0.0949 µM): 84%
viability, T/C (second compound 0.1 µM, first compound 0.3 µM): 87.6%
viability, T/C (second compound 0.1 µM, first compound 0.949 µM): 55.4%
viability, T/C (second compound 0.1 µM, first compound 3 µM): 71%
viability, T/C (second compound 0.316 µM, first compound 0.00949 µM): 80.8%
viability, T/C (second compound 0.316 µM, first compound 0.03 µM): 95.1%
viability, T/C (second compound 0.316 µM, first compound 0.0949 µM): 84.9%
viability, T/C (second compound 0.316 µM, first compound 0.3 µM): 78%
viability, T/C (second compound 0.316 µM, first compound 0.949 µM): 65.7%
viability, T/C (second compound 0.316 µM, first compound 3 µM): 54.1%
viability, T/C (second compound 1 µM, first compound 0.00949 µM): 67.7%
viability, T/C (second compound 1 µM, first compound 0.03 µM): 69.4%
viability, T/C (second compound 1 µM, first compound 0.0949 µM): 75.5%
viability, T/C (second compound 1 µM, first compound 0.3 µM): 56%
viability, T/C (second compound 1 µM, first compound 0.949 µM): 93.4%
viability, T/C (second compound 1 µM, first compound 3 µM): 49.8%
viability, T/C (second compound 3.16 µM, first compound 0.00949 µM): 57.5%
viability, T/C (second compound 3.16 µM, first compound 0.03 µM): 56.8%
viability, T/C (second compound 3.16 µM, first compound 0.0949 µM): 73.6%
viability, T/C (second compound 3.16 µM, first compound 0.3 µM): 46.8%
viability, T/C (second compound 3.16 µM, first compound 0.949 µM): 49.3%
viability, T/C (second compound 3.16 µM, first compound 3 µM): 60.9%
viability, T/C (second compound 10 µM, first compound 0.00949 µM): 55.2%
viability, T/C (second compound 10 µM, first compound 0.03 µM): 65.4%
viability, T/C (second compound 10 µM, first compound 0.0949 µM): 30.6%
viability, T/C (second compound 10 µM, first compound 0.3 µM): 71.8%
viability, T/C (second compound 10 µM, first compound 0.949 µM): 43.1%
viability, T/C (second compound 10 µM, first compound 3 µM): 36.7%

IC50 (curve of compound): > 10 µM
SMILES: O=C(c1cc(Cc2n[nH]c(=O)c3ccccc23)ccc1F)N1CCN(C(=O)C2CC2)CC1
viability, T/C (compound 0.0316 µM): 80.7% and 96.9% and 79.1%
viability, T/C (compound 0.1 µM): 93.5% and 79.1% and 92.7%
viability, T/C (compound 0.316 µM): 80.5% and 81.3% and 77.4%
viability, T/C (compound 1 µM): 96.3% and 112% and 117%
viability, T/C (compound 3.16 µM): 97.3% and 89.7% and 106%
viability, T/C (compound 10 µM): 94.3% and 70.3% and 86.1%
